The text below walks through data of patent US20240407993A1, “PEPTIDE HAVING ANTI-AGING ACTIVITY, AND USE THEREOF” (CAREGEN CO., LTD., priority 2021, published 2024).

One assay relates to hyaluronic acid. The assay can be described thus: Hyaluronic acid secretion (HA ELISA) in keratinocytes. The settings on record: HaCaT cells, peptide 1, 10, 50 μM, 24 hours; FIG. 2. The class given is cell-based, human. The procedure: First, HaCaT cells (human keratinocyte cell line) were seeded in a 48-well plate at a cell density of 1×10^5 cell/well, and then the cells were cultured in DMEM medium containing 10% fetal bovine serum (FBS) for 24 hours. The cultured cells were washed once with serum free DMEM medium, and the peptide of the present invention was mixed in 2 mL of the serum free DMEM medium at each of concentrations of 1, 10, and 50 μM, and dispensed into three wells by 500 μL per condition. A positive control (PC) was treated with 100 nM of EGF instead of the above peptide. The cells were cultured in a CO2 incubator at 37° C. for 24 hours.
The medium of the cultured HaCaT cells was centrifuged to settle a suspended matter, and a supernatant was transferred to an e-tube and used to perform HA ELISA (ECHELON biosciences, Cat No.: K-1200, USA).
(In general: In an ELISA, binding on a coated surface is turned into a signal by an enzyme label.)

For a further assay, the system named is SIRT1. Kind of assay: SIRT1 mRNA level decreased by UV irradiation, RT-PCR in keratinocytes. The class given is cell-based, human. The settings on record: HaCaT cells, 20 mJ/cm^2 UVB, peptide 1, 10, 50 μM, 4 hours after irradiation; FIGS. 7A, 7B. On the procedure:
(§1) The expression of genes related to aging is inhibited when irradiated with UV.
(§2) First, HaCaT cells were seeded in a 6-well plate at a cell density of 5×10^5 cell/well, and then the cells were cultured in DMEM medium containing 10% fetal bovine serum (FBS) for 24 hours. The cultured cells were washed once with serum free DMEM medium, and then the peptide of the present invention was mixed in 1 mL of the serum free DMEM medium at each of concentrations of 1, 10, and 50 μM, and dispensed into the cells. A positive control (PC) was treated with 2.5 mM of N-Acetylcysteine (NaC) instead of the above peptide.
(§3) The cells were cultured in a CO2 incubator at 37° C. for 1 hour. The medium of the cultured cells was transferred to a tube (e-tube), 1 ml of PBS was added, and irradiation was performed with 20 mJ/cm^2 of UVB using a UV irradiator (VILBER LOURMAT, Cat No.: 3102-BSU, France). After removing PBS, 900 μL of the medium transferred to the tube was added, and culture was performed in a CO2 incubator at 37° C. for 4 hours. The cultured cells were washed twice with PBS, and then RNA was extracted from the cells using easy blue (iNtRON, Cat. No.: 17061, Korea). The extracted RNA was subjected to RT reaction using a kit (enzynomics, Cat. No.: RT200, Korea). Thereafter, RT-PCR was performed using a PCR kit (enzynomics, Cat. No.: R581T, Korea). […]

For assay [1], the system named is MMP-1. Kind of assay: MMP-1 protein expression increased by UV irradiation, western blot in keratinocytes. The class given is cell-based, human. The settings on record: HaCaT cells, 15 mJ/cm^2 UVB, peptide 1, 10, 50 μM, 24 hours after irradiation; FIG. 6B. The procedure:
(§4) The expression of MMP-1 encoding proteins related to collagen degradation increases by ultraviolet irradiation. Therefore, it was confirmed whether the expression of the MMP-1 protein was inhibited again and the cell aging phenomenon was inhibited when treated with the peptide of the present invention.
(§5) First, NIH3T3 cells and HaCaT cells were seeded in a 6-well plate at a cell density of 5×10^5 cell/well, respectively, and then the cells were cultured in DMEM medium containing 10% fetal bovine serum (FBS) for 24 hours. The cultured cells were washed once with serum free DMEM medium, and the peptide of the present invention was mixed in 1 mL of the serum free DMEM medium at each of concentrations of 1, 10, and 50 μM, and dispensed into the cells. A positive control (PC) was treated with 2.5 mM of N-Acetylcysteine (NaC) instead of the above peptide.
(§6) The cells were cultured in a CO2 incubator at 37° C. for 1 hour. The medium of the cultured cells was transferred to a tube (e-tube), 1 ml of PBS was added, and then the NIH3T3 cells were irradiated with 6 J/cm^2 of UVA and the HaCaT cells were irradiated with 15 mJ/cm^2 of UVB using a UV irradiator (VILBER LOURMAT, Cat No.: 3102-BSU, France). After removing PBS, 900 μL of the medium transferred to the tube was added, and culture was performed in a CO2 incubator at 37° C. for 24 hours. […]
(A western blot detects proteins with antibodies after separation by electrophoresis.)

For assay [2], the system named is MMP-1. The assay can be described thus: MMP-1 protein expression increased by UV irradiation, western blot in fibroblasts. The class given is cell-based, mouse. The settings on record: NIH3T3 cells, 6 J/cm^2 UVA, peptide 1, 10, 50 μM, 24 hours after irradiation; FIG. 6A. On the procedure:
as §4, §5, §6

The test system of a further assay is AQP3. Kind of assay: AQP3 mRNA level decreased by UV irradiation, RT-PCR in keratinocytes. In kind it is cell-based, human. The settings on record: HaCaT cells, 20 mJ/cm^2 UVB, peptide 1, 10, 50 μM, 4 hours after irradiation; FIGS. 7A, 7C. On the procedure: as §1, §2, §3

In the case of LCACCLHNCNECQ, the “secretion of hyaluronic acid protein” value with hyaluronic acid is reported as “gradually increased as the concentration of the peptide increased”. Also, the “mRNA level of SIRT1 decreased by UV irradiation” value in the assay with SIRT1 was “increased again”. Besides, the “expression of MMP-1 increased by UV irradiation” value with MMP-1 [1] and in the assay with MMP-1 [2] was “inhibited” throughout. In addition, the “mRNA level of AQP3 decreased by UV irradiation” value with AQP3 is given as “increased again”.
